{"source": "paper PMC6150239", "about": "(Molecules : A Journal of Synthetic Chemistry and Natural …, 2017)", "key": {"[1]": {"assay": "Human liver microsome stability assay", "type": "in vitro ADME", "conditions": "human liver microsomes, 1 μM, 37 °C; CLint = k/P"}, "[2]": {"set-up": "method as in PMID 27079428", "conditions": "cited from earlier work"}}}
{"smiles": "C[C@]12CC[C@H]3[C@@H](CCC4=CC(=O)CC[C@@]43C)[C@@H]1CC[C@@H]2O", "note": "[Testosterone, testosterone, reference compound]", "values": [{"measurement": "CLint (intrinsic clearance)", "setting": "[1]", "value": 0.0727, "unit": "mL/min/mg Protein"}]}
{"smiles": "[2H]C([2H])([2H])Oc1cc2c(cc1OC([2H])([2H])[2H])C1CC(=O)C(CC(C)C)CN1CC2", "note": "(stereo not drawn) [deutetrabenazine]", "values": [{"measurement": "t1/2", "setting": "[2]", "value": 8.6, "unit": "h"}]}
{"smiles": "COc1cc2c(cc1OC)C1CC(=O)C(CC(C)C)CN1CC2", "note": "(stereo not drawn) [tetrabenazine]", "values": [{"measurement": "t1/2", "setting": "[2]", "value": 4.8, "unit": "h"}]}
